Reference: patent US9464092B2, “Transient protection of normal cells during chemotherapy” (G1 Therapeutics, Inc., priority 2013, dated 2016)

How the values were obtained:
[1] = tested on: A2058 (human metastatic melanoma cells - Rb-negative); test: Cellular proliferation assay (CellTiter-Glo), A2058; assay type: cell-based; details: A2058, 144 h, six days
Protocol: (§1) Cellular proliferation assays were conducted using the following Rb-negative cancer cell lines: H69 (human small cell lung cancer—Rb-negative) cells or A2058 (human metastatic melanoma cells—Rb-negative). These cells were seeded in Costar (Tewksbury, Mass.) 3093 96 well tissue culture treated white walled/clear bottom plates. Cells were treated with the compounds of Table 1 as nine point dose response dilution series from 10 uM to 1 nM. Cells were exposed to compounds and then cell viability was determined after either four (H69) or six (A2058) days as indicated using the CellTiter-Glo® luminescent cell viability assay (CTG; Promega, Madison, Wis., United States of America) following the manufacturer's recommendations. Plates were read on BioTek (Winooski, Vt.) Syngergy2 multi-mode plate reader. The Relative Light Units (RLU) were plotted as a result of variable molar concentration and data was analyzed using Graphpad (LaJolla, Calif.) Prism 5 statistical software to determine the EC50 for each compound.

[2] = target: CDK4/CyclinD1 (Homo sapiens (Human), UniProt P11802); test: CDK4/CyclinD1 kinase assay (Nanosyn, Caliper microfluidic); assay type: biochemical; details: Table 2; read-out: CDK4/CycD1 IC50
[3] = target: CDK2/CyclinE (Homo sapiens (Human), UniProt P24941); test: CDK2/CyclinE kinase assay (Nanosyn, Caliper microfluidic); assay type: biochemical; details: Table 2
[4] = tested on: HS68 cells (human skin fibroblast cell line (Rb-positive)); test: G1 arrest (cellular G1 and S-phase) assay; assay type: cell-based; details: Homo sapiens, Hs68, HS68 cells
Protocol: For determination of cellular fractions in various stages of the cell cycle following various treatments, HS68 cells (human skin fibroblast cell line (Rb-positive)) were stained with propidium iodide staining solution and run on Dako Cyan Flow Cytometer. The fraction of cells in G0-G1 DNA cell cycle versus the fraction in S-phase DNA cell cycle was determined using FlowJo 7.2 0.2 analysis.
The compounds listed in Table 1 were tested for their ability to arrest HS68 cells at the G1 phase of the cell cycle.

[5] = tested on: H69 (human small cell lung cancer - Rb-negative) cells; test: Cellular proliferation assay (CellTiter-Glo), H69; assay type: cell-based; details: NCI-H69, 96 h, four days
Protocol: as §1

[6] = target: CDK2/CyclinA (Homo sapiens (Human), UniProt P24941); test: CDK2/CyclinA kinase assay (Nanosyn, Caliper microfluidic); assay type: biochemical; details: Table 2
Outline: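 Phosphorylation was read by Caliper microfluidic detection. Compounds ran as 12-point dose-responses in singlicate, with staurosporine as reference.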

Chain of CDK4/CyclinD1 (P11802 whole entry, species assumed): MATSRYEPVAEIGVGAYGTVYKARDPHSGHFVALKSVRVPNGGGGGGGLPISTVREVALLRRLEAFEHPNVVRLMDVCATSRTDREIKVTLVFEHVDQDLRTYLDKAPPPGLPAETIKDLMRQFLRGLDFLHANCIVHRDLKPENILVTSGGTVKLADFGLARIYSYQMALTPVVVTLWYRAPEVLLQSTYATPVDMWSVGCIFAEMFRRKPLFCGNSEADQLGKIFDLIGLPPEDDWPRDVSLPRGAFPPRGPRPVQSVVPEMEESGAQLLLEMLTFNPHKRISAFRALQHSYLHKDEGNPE
Chain of CDK4/CyclinD1 (P24385 whole entry partner, species assumed): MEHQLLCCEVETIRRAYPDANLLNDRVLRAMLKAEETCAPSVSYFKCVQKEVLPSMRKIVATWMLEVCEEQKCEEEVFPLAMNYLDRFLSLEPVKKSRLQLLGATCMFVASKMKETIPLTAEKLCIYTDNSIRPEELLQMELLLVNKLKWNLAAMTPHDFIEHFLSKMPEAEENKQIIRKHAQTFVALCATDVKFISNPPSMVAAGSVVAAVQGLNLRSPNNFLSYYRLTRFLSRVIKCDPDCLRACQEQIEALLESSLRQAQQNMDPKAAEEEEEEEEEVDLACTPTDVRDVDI

EC50 [1]: > 3000 nM | IC50 [2]: 2.8 nM | Fold Selectivity (CDK2/CycE/CDK4) [3]: 68 | IC50 ([3]; read-out: CDK2/CycE IC50): 187 nM | EC50 [5]: > 3000 nM | Fold Selectivity (CDK2/CycA/CDK4) [6]: 31 | IC50 ([6]; read-out: CDK2/CycA IC50): 85 nM
Structure (SMILES): CN1CCN(C(=O)c2ccc(Nc3ncc4cc5n(c4n3)C3(CCCC3)CNC5=O)nc2)CC1 [BBB]
EC50 [4]: 230 nM
